System: patients with prior myocardial infarction (CARE study)
Assay: CARE: risk of cardiovascular disease events associated with pravastatin by CD6 or FCAR genotype (Tables 11, 12)
Type: in vivo, human
Settings: for RR (relative risk) of RMI associated with Pravastatin: recurrent MI during 5 years follow up; for OR of RMI associated with Pravastatin, Adjusted for Age, Smoking status, Gender / OR of RMI associated with Pravastatin, Adjusted for Age, Smoking status, Gender, hypertension, BMI, diabetes, baseline LDLD and HDL / OR of RMI associated with Pravastatin, Unadjusted: placebo group as reference
From the text: In order to identify genetic markers associated with acute coronary events (e.g. MI, stroke, unstable angina, congestive heart failure, etc.) or response to statin treatment for the prevention of coronary events, samples from the Cholesterol and Recurrent Events (CARE) study (a randomized multicentral double-blinded trial on secondary prevention of acute coronary events with pravastatin) (Sacks et al., 1991, Am. J. Cardiol. 68: 1436-1446) were genotyped. A well-documented myocardial infarction (MI) was one of the enrollment criteria for entry into the CARE study. Patients were enrolled in the CARE trial from 80 participating study centers. […] Patients were randomized to receive either 40 mg of pravastatin once daily or a matching placebo. The primary endpoint of the trial was death from coronary heart disease and the median duration of follow-up was 5.0 years (range, 4.0 to 6.2 years). […] Secondary endpoints of other related cardiovascular or metabolic disease events, and changes in clinical variables were also recorded in pravastatin-treated and placebo groups. All individuals included in the study had signed a written informed consent form and the study protocol was approved by the respective Institutional Review Boards (IRBs).
In both studies the individuals homozygous for the minor allele were statistically different from heterozygous and major allele homozygous individuals in the pravastatin treated group vs. the placebo treated group. This SNP was associated with a reduced risk of an adverse coronary event in the CARE and WOSCOPS studies with RR or OR of 0.13 and 0.23 respectively in the two studies. Therefore, SNPs identified as useful for predicting RMI may also be useful for predicting increased risk for developing primary MI.
Therefore, an allele found to be associated with risk for MI, RMI, stroke, or other adverse cardiovascular event, may also be useful for predicting responsiveness to statin treatment. SNPs associated with treatment response to pravastatin may also be predictive of responsiveness of an individual to other statins as a class.

[1] = FCAR hCV7841642 genotype AA + AG

SMILES: CC[C@H](C)C(=O)O[C@H]1C[C@H](O)C=C2C=C[C@H](C)[C@H](CC[C@@H](O)C[C@@H](O)CC(=O)O)[C@H]21 [pravastatin]
- RR or OR of adverse coronary event, pravastatin vs placebo (CD6 hCV2553030, homozygous for the minor allele): 0.13
- RR (relative risk) of RMI associated with Pravastatin (CD6 hCV2553030 genotype Het (TC)): 0.76
- RR (relative risk) of RMI associated with Pravastatin (CD6 hCV2553030 genotype Major hom (CC)): 0.8
- RR (relative risk) of RMI associated with Pravastatin (CD6 hCV2553030 genotype Minor hom (TT)): 0.13
- RR (relative risk) of RMI associated with Pravastatin (CD6 hCV2553030 recessive (TT + CC)ref): 0.78
- RR (relative risk) of RMI associated with Pravastatin (CD6 hCV2553030 recessive (TT)): 0.13
- OR of RMI associated with Pravastatin, Adjusted for Age, Smoking status, Gender [1]: 0.31
- OR of RMI associated with Pravastatin, Adjusted for Age, Smoking status, Gender, hypertension, BMI, diabetes, baseline LDLD and HDL [1]: 0.31
- OR of RMI associated with Pravastatin, Unadjusted [1]: 0.32
- OR of RMI associated with Pravastatin, Adjusted for Age, Smoking status, Gender (FCAR hCV7841642 genotype GG): 0.79
- OR of RMI associated with Pravastatin, Adjusted for Age, Smoking status, Gender, hypertension, BMI, diabetes, baseline LDLD and HDL (FCAR hCV7841642 genotype GG): 0.79
- OR of RMI associated with Pravastatin, Unadjusted (FCAR hCV7841642 genotype GG): 0.81

— US9932637B2, “Genetic polymorphisms associated with cardiovascular disorders and drug response, methods of detection and uses thereof” (CELERA CORPORATION, priority 2003, dated 2018)
